In US11767298B2, “Substituted benzimidazoles as inhibitors of transforming growth factor-β kinase” (Duke University, priority 2016, dated 2023):
Entries after “also recorded” stand apart in the source; their conditions may differ.

Key:
[1] = tested on: TAK1 downstream signaling (IKK, p38) in MDA-MB-231 cells; assay: TNFα dependent signaling in MDA-MB-231 cells; format: cell-based; conditions: 10 μM, 2 h pretreatment, TNFα stimulation
Description: In order to investigate the effects of HS-206 on cellular signaling, MDA-MB-231 and Hela cells were pretreated with 10 μM HS-206 for 2 h and stimulated with TNFα (FIG. 8).

IRAK4 = IRAK4 (Homo sapiens, UniProt Q9NWZ3); assay: Kinase profiling (Dundee), IRAK4; format: biochemical
Description: (§1) Kinase selectivity profiling. The selectivity profile of HS-206 to inhibit mammalian kinases was tested against a panel of 140 kinases at a single concentration of 10 μM. Tests were performed using a radiolabeld (^33P-ATP) filter-binding assay at the International Centre for Kinase Profiling at the University of Dundee, UK (http://www.kinase-screen.mrc.ac.uk/).
(§2) This panel contains members of all major kinase families, including tyrosine kinases (TK), tyrosine kinase-like (TKL), sterile serine/threonine (STE), and CDK/MAPK/GSK/CLK (CMGC). […] For these kinases, IC50 values were determined (Table 1).

GCK = GCK (Homo sapiens, UniProt Q12851); assay: Kinase profiling (Dundee), GCK; format: biochemical; conditions: 10 μM
Description: as §1, §2

P. berghei [2] = assay: Liver stage parasite load, luciferase-expressing P. berghei in HepG2 cells; format: cell-based, Plasmodium berghei ANKA; conditions: HepG2 host cells
Description: (§3) Cell-based anti-Plasmodium assays. For liver stage assays, 15,000 HepG2 or 8,000 Huh7 cells/well were added to 384-well microtiter plates using a multichannel pipette (Rainin). After 2 hours at 37° C., compounds (0-100 μM) were added to cells in duplicate or triplicate in a final concentration of 1% DMSO. DMSO was used as the negative control. Following compound incubation at 37° C. for ˜1 hr, harvested luciferase-expressing P. berghei ANKA sporozoites were added to the plates at a density of 3,000 sporozoites/well. P. berghei ANKA sporozoites were obtained from harvesting the salivary glands of infected A. stephensi mosquitoes. The plates were spun for 10 min at 1,000 rpm, and then incubated at 37° C. for ˜45 hrs. […] After ˜45 hours at 37° C., liver cell viability was assessed using CellTiter-Fluor (Promega) and then parasite load was determined using Bright-Glo (Promega). The relative fluorescence and luminescence signal intensity of each well was evaluated with an EnVision System. The luminescence signal in the presence of compounds was normalized to the negative control (DMSO). Dose-response analysis was performed with GraphPad Prism to yield the reported EC50 values.
Anti-Plasmodium activity was evaluated in the parasite's liver stage using a previously reported high-throughput assay. In this assay, luciferase-expressing P. berghei (murine) parasites are used to infect human hepatoma cells (HepG2) and parasite load is assessed with a luminometer subsequent to evaluating HepG2 viability using a commercially available quantification kit that measures intracellular protease activity.
(§4) Specifically, their ability to inhibit P. berghei infection in two human hepatoma cell lines (HepG2 and Huh7) as well as cytotoxicity against HepG2 and Huh7 cells was determined as described above. Liver cell cytotoxicity was evaluated with two different commercially available assays, one that tests for intracellular protease activity with a fluorescence reporter and another that relies on the luminescent detection of total ATP.

panel of 140 kinases = assay: Kinase selectivity profiling, 33P-ATP filter-binding assay (Dundee); format: biochemical; conditions: of the 140 kinases, 10 μM
Description: as §1, §2

P. berghei [3] = assay: Liver stage parasite load, luciferase-expressing P. berghei in Huh7 cells; format: cell-based, Plasmodium berghei ANKA; conditions: Huh7 host cells, read-out: IC50 Liver state (Huh7)
Description: as §3, §4

IRAK1 = IRAK1 (Homo sapiens, UniProt P51617); assay: Kinase profiling (Dundee), IRAK1; format: biochemical
Description: as §1, §2

60 cell lines (NCI-60) = assay: NCI-60 Cell One-Dose Screen; format: cell-based; conditions: 10 μM, 24 h
Description: In order to examine the effect of HS-206 on cell viability of different cancers, a screen of 60 cell lines was performed at the NCI, called the NCI-60 Cell One-Dose Screen. […] This screen determined growth inhibition as an effect of HS-206 treatment over a period of 24 h.

CLK2 = CLK2 (Homo sapiens, UniProt P49760); assay: Kinase profiling (Dundee), CLK2; format: biochemical; conditions: 10 μM
Description: as §1, §2

ATP-binding proteins = assay: ATP-beads off-target elution, HepG2 whole-cell lysates; conditions: uninfected HepG2 lysate; compared to DMSO control

Chain of IRAK4 (Q9NWZ3 whole entry): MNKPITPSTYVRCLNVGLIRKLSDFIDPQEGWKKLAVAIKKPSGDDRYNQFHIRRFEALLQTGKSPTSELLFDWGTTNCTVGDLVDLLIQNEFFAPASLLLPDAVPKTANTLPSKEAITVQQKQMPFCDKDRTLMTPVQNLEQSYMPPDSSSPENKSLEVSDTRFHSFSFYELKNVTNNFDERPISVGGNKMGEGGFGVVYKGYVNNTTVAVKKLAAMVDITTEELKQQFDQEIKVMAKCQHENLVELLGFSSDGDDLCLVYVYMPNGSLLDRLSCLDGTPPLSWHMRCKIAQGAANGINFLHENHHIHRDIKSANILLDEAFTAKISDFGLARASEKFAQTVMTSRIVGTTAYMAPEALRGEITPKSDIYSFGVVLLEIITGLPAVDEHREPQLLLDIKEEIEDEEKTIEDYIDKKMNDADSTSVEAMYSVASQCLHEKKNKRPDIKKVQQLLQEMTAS
Chain of IRAK1 (P51617 whole entry): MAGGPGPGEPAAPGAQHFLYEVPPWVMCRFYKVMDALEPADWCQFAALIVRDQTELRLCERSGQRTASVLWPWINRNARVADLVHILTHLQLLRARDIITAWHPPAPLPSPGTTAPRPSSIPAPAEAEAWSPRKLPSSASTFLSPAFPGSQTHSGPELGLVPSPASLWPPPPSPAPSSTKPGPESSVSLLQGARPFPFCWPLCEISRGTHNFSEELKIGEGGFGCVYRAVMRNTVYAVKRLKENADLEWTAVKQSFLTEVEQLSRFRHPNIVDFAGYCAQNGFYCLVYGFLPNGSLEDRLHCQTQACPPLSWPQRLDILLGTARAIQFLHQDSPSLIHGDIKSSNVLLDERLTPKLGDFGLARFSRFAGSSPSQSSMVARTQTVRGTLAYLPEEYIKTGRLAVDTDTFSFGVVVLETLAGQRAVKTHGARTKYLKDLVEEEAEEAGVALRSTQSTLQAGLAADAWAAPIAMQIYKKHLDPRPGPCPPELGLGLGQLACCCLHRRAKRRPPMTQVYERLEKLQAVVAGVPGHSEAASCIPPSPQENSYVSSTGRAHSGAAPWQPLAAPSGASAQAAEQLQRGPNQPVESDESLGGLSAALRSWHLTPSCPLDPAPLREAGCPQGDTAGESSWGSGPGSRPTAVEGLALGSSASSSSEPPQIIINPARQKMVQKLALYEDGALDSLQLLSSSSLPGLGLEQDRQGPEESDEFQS
Chain of GCK (Q12851 whole entry): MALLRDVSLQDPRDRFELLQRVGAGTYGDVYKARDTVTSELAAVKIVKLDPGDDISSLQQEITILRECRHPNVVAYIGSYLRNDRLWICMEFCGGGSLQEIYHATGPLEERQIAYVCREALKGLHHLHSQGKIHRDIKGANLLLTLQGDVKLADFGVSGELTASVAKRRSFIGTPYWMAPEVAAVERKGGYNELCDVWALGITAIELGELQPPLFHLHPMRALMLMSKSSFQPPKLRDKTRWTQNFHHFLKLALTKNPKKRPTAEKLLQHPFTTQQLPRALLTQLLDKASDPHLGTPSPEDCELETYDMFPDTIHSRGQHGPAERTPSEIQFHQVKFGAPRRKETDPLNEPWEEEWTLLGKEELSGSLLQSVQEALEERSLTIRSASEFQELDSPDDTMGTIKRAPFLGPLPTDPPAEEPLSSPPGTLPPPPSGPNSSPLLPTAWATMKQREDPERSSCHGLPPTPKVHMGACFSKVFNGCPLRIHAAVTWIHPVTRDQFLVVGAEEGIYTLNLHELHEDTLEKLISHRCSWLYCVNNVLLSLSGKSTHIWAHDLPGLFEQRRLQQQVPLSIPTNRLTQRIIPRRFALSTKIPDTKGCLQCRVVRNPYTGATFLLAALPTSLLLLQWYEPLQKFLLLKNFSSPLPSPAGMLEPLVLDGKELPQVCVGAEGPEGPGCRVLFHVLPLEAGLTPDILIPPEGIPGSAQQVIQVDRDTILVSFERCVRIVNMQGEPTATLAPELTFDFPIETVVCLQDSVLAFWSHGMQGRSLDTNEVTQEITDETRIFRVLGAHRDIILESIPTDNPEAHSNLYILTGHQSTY
Chain of CLK2 (P49760 whole entry): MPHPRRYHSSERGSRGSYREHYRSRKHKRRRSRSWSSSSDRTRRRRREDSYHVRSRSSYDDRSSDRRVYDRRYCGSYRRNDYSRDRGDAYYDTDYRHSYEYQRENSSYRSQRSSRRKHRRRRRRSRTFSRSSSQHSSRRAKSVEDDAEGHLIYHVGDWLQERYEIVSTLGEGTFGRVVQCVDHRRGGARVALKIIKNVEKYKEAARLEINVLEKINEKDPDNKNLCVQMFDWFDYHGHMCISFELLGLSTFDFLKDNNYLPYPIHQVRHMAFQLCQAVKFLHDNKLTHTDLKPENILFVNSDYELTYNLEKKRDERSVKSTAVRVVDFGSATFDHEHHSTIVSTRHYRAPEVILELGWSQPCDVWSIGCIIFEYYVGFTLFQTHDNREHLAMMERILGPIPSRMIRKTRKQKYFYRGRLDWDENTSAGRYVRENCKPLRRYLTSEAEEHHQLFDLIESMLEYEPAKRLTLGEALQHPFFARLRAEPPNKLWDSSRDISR

CCCn1c(NC(=O)c2cccc(C(N)=O)c2)nc2ccccc21 [HS-206 (1), (E)-N-(1-Propyl-1,3-dihydro-2H-benzo[d]imidazol-2-ylidene)isophthalamide]
TNFα dependent signaling (activation of IKK and p38) [1]: inhibited activation of IKK and p38; also recorded: inhibits TNFα dependent signaling | IC50 (IRAK4): 0.12 ± 0.03 µM | inhibition at 10 µM (IRAK4; 10 μM): > 90% | inhibition at 10 µM (GCK): > 90% | IC50 (P. berghei [2]; Plasmodium berghei, HepG2, parasite load): ~7 µM | IC50 (P. berghei [2]; parasite load): 6.6 µM | number of kinases with ≥80% inhibition (panel of 140 kinases): 11 | IC50 (P. berghei [3]; Plasmodium berghei, Huh-7, parasite load): ~7 µM | IC50 (P. berghei [3]; parasite load): 7.3 µM | IC50 (IRAK1): 0.39 ± 0.05 µM | inhibition at 10 µM (IRAK1; 10 μM): > 90% | growth inhibition, one-dose screen (60 cell lines (NCI-60); colorectal (KM12), leukemia (HL-60), non-small cell lung cancer (NCI-H522)): most affected | growth inhibition, one-dose screen (60 cell lines (NCI-60); melanoma (M14), renal (786-0), ovarian cancer (Ovcar-3)): little effect | inhibition at 10 µM (CLK2): > 90% | elution of ATP-binding proteins from ATP-sepharose beads (ATP-binding proteins): did not lead to any significant elution of ATP-binding proteins
